From patent US20220187282A1, “CARDIOMYOCYTE PROLIFERATION” (The Council of the Queensland Institute of Medical Research, priority 2019, published 2022)

Assays:
[1] = target: kinases (Homo sapiens, UniProt O94921); assay type: biochemical; conditions: CDK14(PFTK1)/cyclinY Lantha SP; Test Conc(μM) 1
[2] = target: kinases (Homo sapiens, UniProt Q13163); assay type: biochemical; conditions: MAP2K5 (MEK5) FRET-Lantha SP; Test Conc(μM) 1
[3] = tested on: mature hCO; assay: RNA-sequencing of mature hCO treated with compounds; assay type: cell-based, human; conditions: 2 days; for genes regulated (RNA-seq): 3 μM compound 3, 0.3 μM compound 63, 1 μM compound 65
Procedure: For each experiment 15-20 hCOs were pooled, snap frozen and RNA extracted using Trizol (ThermoFisher Scientific), treated with DNAse (Qiagen) and purified using RNeasy Minielute Cleanup Kit (Qiagen). The quality of the RNA was assessed by Fragment Analyzer (Advances Analytical Technologies) and samples with RNA quality number >8.9 were used for library preparation. RNA samples were processed with Illumina TruSeq Stranded mRNA Library prep kit selecting for poly(A) tailed RNA following the manufacturer's recommendations. Libraries were quantified with Qubit HS (ThermoFisher) and Fragment Analyzer (Advances Analytical Technologies) adjusted to the appropriate concentration for sequencing. Indexed libraries were pooled and sequenced at a final concentration of 1.8 pmol/L on an Illumina NextSeq 500 high-output run using paired-end chemistry with 75 bp read length.
The sequencing data was demultiplexed using Illumina bc12fastq2-v2.17. The quality of the reads was assessed thanks to FastQC (https://www.bioinformatics.babraham.ac.uk/projects/fastqc/). The reads were then processed and mapped to the human genome hg38 using the Bcbio-nextgen framework version 1.0.3 (https://github.com/chapmanb/bcbio-nextgen). The aligner used was HISAT2 2.0.5. For sample quality assessment, raw counts were normalised with DESeq2 regularized logarithm function. A principal component analysis (PCA) was performed using R v 3.3.1(Team, 2015) and led to the detection of a batch effect among samples which was corrected using the removeBatchEffect function from Limma v3.30.13. The identification of the differentially expressed genes between treated and non-treated samples was performed using DESeq2 v1.14.1 (Love et al., 2014) in R v 3.3.1 (Team, 2015) using the design ˜Batch+Compound to account for the batch effect directly. A FDR of 0.1 was defined to call for differentially expressed genes. The mechanistic networks in were generated using IPA upstream analysis (QIAGEN Inc., https://www.qiagenbioinformatics.com/products/ingenuity-pathway-analysis). Gene Ontology (GO) annotations enrichment analyses were performed with GOSeq v1.28.0 (Young et al., 2010), were generated in R using ggplot2 (http://ggplot2.tidyverse.org/index.html) and package GOSemSim v2.2.0 (Yu et al., 2010) for term similarities.
In order to determine the biological processes driving the pro-proliferative effects of our hit compounds, we performed RNA-sequencing (RNA-seq) and single organoid quantitative proteomics (FIG. 4A). These analyses were performed on hCOs treated with compounds 3, 63 and 65 at concentrations of 3 μM, 0.3 μM and 1 μM, respectively. RNA-seq for hCO treated with compounds 3 and 65 clustered distinctly in principal component analysis (FIG. 4B) and regulated a total of 239 and 207 genes (FIG. 9A), respectively.

[4] = tested on: mature hCOs; assay: mature hCO, force of contraction; assay type: cell-based, human; conditions: 2 days, compound 3 at 3 μM, 63 at 0.3 μM, 65 at 1 μM
Procedure: hCOs were cultured in CTRL medium for formation for 5 days and then either kept in CTRL medium culture or changed to maturation medium (Mills et al., 2017a) comprising DMEM without glucose, glutamine and phenol red (ThermoFisher Scientific) supplemented with 4% […](without insulin) (ThermoFisher Scientific), 1% GlutaMAX (ThermoFisher Scientific), 200 μM L-ascorbic acid 2-phosphate sesquimagnesium salt hydrate and 1% Penicillin/Streptomycin (ThermoFisher Scientific), 1 mmol/L glucose and 100 μmon palmitic acid (conjugated to bovine serum albumin within B27 by incubating for 2h at 37° C., Sigma) with changes every 2-3 days.
The pole deflection was used to approximate the force of contraction as per (Mills et al., 2017a). A Leica DMi8 inverted high content Imager was used to capture a 10 s time-lapse of each hCO contracting in real time at 37° C. […]
Hits were next validated in mature hCOs using a targeted concentration range based on their active concentrations in the initial immature hCO screen (FIG. 3A). Proliferation markers were quantified using high magnification confocal imaging as we found flow cytometry to be inaccurate in hCO (data not shown). […]

[5] = tested on: mature hCOs; assay: mature hCO, cardiomyocyte number, hCO size, bi-nucleation, cardiomyocyte size; assay type: cell-based, human; conditions: for cardiomyocyte number / bi-nucleation / hCO size (α-actinin area): 3 μM compound 3 or 1 μM compound 65; for bi-nucleation: 4 days; for hCO size (α-actinin area): 7 days
Procedure: For more detailed images an Olympus IX81 confocal microscope was used for mounted hCO imaging. For cell cycle analysis experiments 3 random fields of view were imaged and manually quantified for proliferation. These were added together to calculate the percentage of hPSC-CM proliferation in each hCO.
Cells were dissociated by washing in perfusion buffer at 37° C. (130 mM NaCl, 1 mM MgCl2, 5 mM KCl, 0.5 mM NaH2PO4, 10 mM HEPES, 10 mM Taurine, 10 mM glucose, 10 μM 2,3-butanedione monoxime, pH 7.4). hCO were then incubated in EDTA buffer at 37° C. for 5 min (130 mM NaCl, 5 mM KCl, 0.5 mM NaH2PO4, 10 mM HEPES, 10 mM Taurine, 10 mM glucose, 5 mM EDTA, 10 μM 2,3-butanedione monoxime, pH 7.4). hCO were washed in perfusion buffer and then incubated in perfusion buffer plus 1 mg/ml collagenase B (Roche) for 15 min at 37° C. on a shaker at 500 rpm. Equivolume 0.25% trypsin-EDTA (ThermoFisher) was then added and the hCOs were incubated for 10 min at 37° C. on a shaker at 500 rpm. Perfusion buffer with 5% FBS was then added and the single cells pelleted by centrifuging at 1000×g for 3 min. The cells were then resuspended in 1% para-formaldehyde and incubated for 5 min at room temperature. hCO were then centrifuged at 1000×g for 3 min, paraformaldehyde removed, suspended in PBS and counted using a haemocytometer.
Hits were next validated in mature hCOs using a targeted concentration range based on their active concentrations in the initial immature hCO screen (FIG. 3A). Proliferation markers were quantified using high magnification confocal imaging as we found flow cytometry to be inaccurate in hCO (data not shown). Compounds 3, 63 and 65 had no impact on contractile force (FIG. 3B) at concentrations of 3 μM, 0.3 μM and 1 μM, respectively. […] The effects of both compound 3 and compound 65 were reversible, with proliferation ceasing within 5 days of compound withdrawal (FIG. 8B). Therefore, compound 3 (FIG. 3G) and compound 65 (Goldberg et al., 2009) (FIG. 3H) are both capable of inducing bona fide cardiomyocyte proliferation in mature hCOs without adversely affecting contractile properties.

kinases (Homo sapiens, UniProt Q13163), sequence (Q13163 whole entry): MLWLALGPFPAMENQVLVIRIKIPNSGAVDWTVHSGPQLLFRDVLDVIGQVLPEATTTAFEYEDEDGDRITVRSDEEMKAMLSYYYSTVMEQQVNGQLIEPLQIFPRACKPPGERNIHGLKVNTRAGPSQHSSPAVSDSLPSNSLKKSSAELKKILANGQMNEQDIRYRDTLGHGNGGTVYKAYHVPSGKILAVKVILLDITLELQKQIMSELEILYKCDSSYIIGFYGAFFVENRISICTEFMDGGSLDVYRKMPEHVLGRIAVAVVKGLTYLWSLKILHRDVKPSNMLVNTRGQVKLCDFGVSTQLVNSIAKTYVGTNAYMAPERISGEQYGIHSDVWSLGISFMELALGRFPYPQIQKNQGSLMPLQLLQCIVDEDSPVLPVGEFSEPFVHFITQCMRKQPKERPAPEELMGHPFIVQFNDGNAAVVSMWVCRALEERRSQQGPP
kinases (Homo sapiens, UniProt O94921), sequence (O94921 whole entry): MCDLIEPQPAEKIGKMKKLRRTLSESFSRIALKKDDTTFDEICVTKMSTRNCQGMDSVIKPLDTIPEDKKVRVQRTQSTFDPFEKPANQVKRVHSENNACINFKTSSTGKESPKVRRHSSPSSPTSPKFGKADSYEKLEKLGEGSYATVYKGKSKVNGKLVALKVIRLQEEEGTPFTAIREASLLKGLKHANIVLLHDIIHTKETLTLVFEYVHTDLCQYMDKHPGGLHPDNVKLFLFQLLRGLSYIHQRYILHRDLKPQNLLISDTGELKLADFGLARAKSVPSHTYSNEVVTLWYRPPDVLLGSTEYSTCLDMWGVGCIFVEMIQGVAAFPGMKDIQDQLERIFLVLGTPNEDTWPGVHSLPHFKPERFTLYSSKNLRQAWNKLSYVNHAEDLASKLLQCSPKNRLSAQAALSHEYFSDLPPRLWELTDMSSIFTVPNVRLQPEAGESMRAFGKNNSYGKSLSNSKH

Row | SMILES | Mean Inhib (%) [1] | Mean Inhib (%) [2] | network significantly regulated (network analysis of RNA-seq) [3] | transcription of cell cycle controllers PLK1, CCNB2, CCND1, CCNA2 and FOXM1 ([3]; 3 μM) | genes regulated (RNA-seq) [3] | contractile force [4] | cardiomyocyte size with 10 μM simvastatin ([5]; 3 μM compound 3, 2 days) | cardiomyocyte number [5] | cardiomyocyte size ([5]; 3 μM, 2 days) | bi-nucleation [5] | hCO size (α-actinin area) [5] | cardiomyocyte size ([5]; compound 3 or compound 65) | mevalonate pathway enzymes SQLE, HMGCS1 and CYP51A1 ([3]; 1 μM) | networks regulated based on RNA-seq data (gene ontologies) ([3]; 1 μM) | transcription of CDKN2B (p15) ([3]; 1 μM) | cardiomyocyte size, combined with 10 μM simvastatin ([5]; 1 μM, 2 days)
1 | Cc1ccc(NC(=O)c2ccnc(N3CCOCC3)c2)cc1Nc1ccnc(N2CC(C)OC(C)C2)n1 (stereo not shown) [compound 3] | 3.5% | −1.6% | MAPK14 (p38α) network | upregulated | 239 genes | no impact | without significant changes | increase | decreases | without an increase | increase | without an increase | – | – | – | –
2 | Cc1cc(Oc2ccnc(Nc3ccc(S(N)(=O)=O)cc3)c2)c(-c2ccccn2)nc1C [compound 65] | 11.7% | 3.4% | TGFβ receptor (TGFβR) and bone morphogenic protein receptor (BMPR) networks | – | 207 genes | no impact | – | increase | – | without an increase | increase | without an increase | activated | an extracellular matrix network and a cholesterol biosynthesis network | inhibited | increased
